For assay [1], the target named is T1, Heat shock factor protein 1 (Mus musculus, UniProt P38532).
T1 sequence (P38532 whole entry): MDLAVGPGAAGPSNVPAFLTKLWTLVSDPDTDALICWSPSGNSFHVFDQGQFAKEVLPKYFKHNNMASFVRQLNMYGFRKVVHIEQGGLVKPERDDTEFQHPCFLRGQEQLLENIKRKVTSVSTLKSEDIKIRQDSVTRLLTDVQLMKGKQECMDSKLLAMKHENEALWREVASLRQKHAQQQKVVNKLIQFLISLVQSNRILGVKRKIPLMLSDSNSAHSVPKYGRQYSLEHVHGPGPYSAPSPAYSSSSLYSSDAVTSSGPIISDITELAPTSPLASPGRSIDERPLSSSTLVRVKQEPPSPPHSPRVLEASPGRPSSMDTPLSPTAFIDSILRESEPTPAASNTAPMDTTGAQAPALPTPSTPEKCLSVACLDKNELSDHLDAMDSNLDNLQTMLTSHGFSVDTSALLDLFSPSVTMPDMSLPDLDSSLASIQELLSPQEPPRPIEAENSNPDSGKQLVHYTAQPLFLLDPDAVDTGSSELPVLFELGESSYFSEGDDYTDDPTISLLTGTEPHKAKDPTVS
Put plainly: inhibition of MG132-induced HSE-luciferase signal, confirmation, cell-based, NIH3T3, luminescence, dose retest (AID 2382).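 Further: NIH3T3 fibroblasts with HSF1-driven luciferase reporter stressed by proteasome inhibitor MG132; luminescence from HSF1-driven luciferase expression after 8 hours of MG132 stress.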 The class given is functional.

Assay [2] deals with T2, Rac GTPase-activating protein 1 (Homo sapiens, UniProt Q9H0H5).
T2 sequence (Q9H0H5 whole entry): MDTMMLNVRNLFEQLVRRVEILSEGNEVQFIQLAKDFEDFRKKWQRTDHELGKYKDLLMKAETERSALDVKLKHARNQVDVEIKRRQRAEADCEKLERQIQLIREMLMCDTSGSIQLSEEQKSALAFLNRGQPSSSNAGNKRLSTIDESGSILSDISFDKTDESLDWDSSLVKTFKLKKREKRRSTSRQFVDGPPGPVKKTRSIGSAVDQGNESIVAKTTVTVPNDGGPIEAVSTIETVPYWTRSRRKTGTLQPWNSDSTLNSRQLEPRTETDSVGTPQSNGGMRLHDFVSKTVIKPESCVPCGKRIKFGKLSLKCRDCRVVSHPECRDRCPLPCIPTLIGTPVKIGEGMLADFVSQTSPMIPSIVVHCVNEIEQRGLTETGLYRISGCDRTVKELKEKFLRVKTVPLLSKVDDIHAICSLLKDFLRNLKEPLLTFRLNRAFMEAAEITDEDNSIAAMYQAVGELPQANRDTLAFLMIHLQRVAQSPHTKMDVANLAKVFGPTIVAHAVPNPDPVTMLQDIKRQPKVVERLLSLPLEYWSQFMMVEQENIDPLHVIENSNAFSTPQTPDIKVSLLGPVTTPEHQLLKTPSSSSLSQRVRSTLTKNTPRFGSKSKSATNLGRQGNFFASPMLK
Put plainly: MgcRacGAP GTPase-activating activity inhibitors, confirmation, biochemical, ADP Hunter fluorescence, primary and confirmatory (AID 624330). Type of assay: functional.

In a further assay the test system is INS1. Put plainly: beta cell apoptosis inhibitors, cytokine rescue, dose response, luminescence, retest (AID 449756).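 Further: cell death triggered by IL-1 beta plus TNF-alpha plus IFN-gamma mixture; protective hits raise ATP signal compared with cytokine alone wells.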 The conditions noted are these: Rattus norvegicus. The class given is functional, cell-based.
The next assay addresses Cytochrome P450 3A4 (Homo sapiens, UniProt P08684).
A further assay has as its target Cytochrome P450 2C9 (Homo sapiens, UniProt P11712).
The target of assay [3] is T3, RNA-binding protein pos-1 (Caenorhabditis elegans, UniProt G5EF15).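 Further: purified POS-1 fused to maltose binding protein made in E. coli; potency of compounds blocking POS-1 binding to fluorescent RNA.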
T3 sequence (G5EF15 whole entry): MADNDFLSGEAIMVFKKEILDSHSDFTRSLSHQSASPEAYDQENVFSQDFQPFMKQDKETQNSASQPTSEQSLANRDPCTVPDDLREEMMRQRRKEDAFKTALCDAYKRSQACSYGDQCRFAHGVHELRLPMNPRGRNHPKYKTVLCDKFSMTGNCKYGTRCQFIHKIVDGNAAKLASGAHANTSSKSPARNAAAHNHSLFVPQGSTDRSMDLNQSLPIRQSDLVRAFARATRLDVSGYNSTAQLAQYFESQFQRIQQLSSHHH
Put plainly: inhibitors of POS-1/mex-3 RNA binding, dose response, biochemical, fluorescence polarization (AID 1964). (In general: Polarisation of emitted light reports the rotation of a fluorescent probe.)

Assay [4] has as its target T4, Zinc finger protein mex-5 (Caenorhabditis elegans, UniProt Q9XUB2).
T4 sequence (Q9XUB2 whole entry): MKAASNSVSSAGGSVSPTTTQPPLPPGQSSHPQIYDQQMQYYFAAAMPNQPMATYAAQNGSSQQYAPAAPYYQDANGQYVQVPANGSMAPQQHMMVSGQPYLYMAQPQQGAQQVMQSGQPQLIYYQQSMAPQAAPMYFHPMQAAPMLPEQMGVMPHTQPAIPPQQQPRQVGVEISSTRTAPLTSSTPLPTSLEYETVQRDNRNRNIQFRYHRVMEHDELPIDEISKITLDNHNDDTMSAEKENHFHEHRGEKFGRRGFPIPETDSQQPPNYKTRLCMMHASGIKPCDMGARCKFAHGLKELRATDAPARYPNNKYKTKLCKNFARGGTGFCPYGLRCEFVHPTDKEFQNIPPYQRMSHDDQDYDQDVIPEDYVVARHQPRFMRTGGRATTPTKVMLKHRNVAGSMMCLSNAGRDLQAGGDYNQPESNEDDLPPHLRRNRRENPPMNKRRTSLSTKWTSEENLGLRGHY
Kind of assay: MEX-5/TCR-2 RNA interaction inhibitors, dose response, biochemical, C. elegans, fluorescence polarization (AID 1960).

A further assay deals with H9c2. Kind of assay: cells. The class given is functional, cell-based. Conditions: Rattus norvegicus, H9c2, Myocardium.
The target in another assay is Cytochrome P450 2C19 (Homo sapiens, UniProt P33261). Kind of assay: Cytochrome panel assay with activity outcomes. Panel member name: p450-cyp2c19 Compounds with AC50 equal or less than 10 uM are considered active. Type of assay: functional. Conditions: read-out: AC50.

Experimental findings from ChEMBL document CHEMBL1201862, “PubChem BioAssay data set” (2004) are described below.

Structures are written as SMILES. Activity calls are given as the source filed them.

Sequence of Cytochrome P450 3A4 (P08684 whole entry): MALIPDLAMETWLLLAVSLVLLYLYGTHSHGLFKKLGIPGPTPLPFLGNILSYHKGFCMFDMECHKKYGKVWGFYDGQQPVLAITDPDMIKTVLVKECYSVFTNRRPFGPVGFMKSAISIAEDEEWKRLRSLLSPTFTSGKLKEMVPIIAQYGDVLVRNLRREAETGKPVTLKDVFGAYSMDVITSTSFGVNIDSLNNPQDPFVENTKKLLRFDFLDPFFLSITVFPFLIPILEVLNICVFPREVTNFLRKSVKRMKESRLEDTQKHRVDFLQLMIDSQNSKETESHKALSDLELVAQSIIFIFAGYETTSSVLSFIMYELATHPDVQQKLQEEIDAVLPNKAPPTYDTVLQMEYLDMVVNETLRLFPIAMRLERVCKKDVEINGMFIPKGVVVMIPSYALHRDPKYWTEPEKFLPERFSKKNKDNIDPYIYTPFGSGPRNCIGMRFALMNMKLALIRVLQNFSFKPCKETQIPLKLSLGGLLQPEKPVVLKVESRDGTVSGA
Sequence of Cytochrome P450 2C9 (P11712 whole entry, the tested form may be a part): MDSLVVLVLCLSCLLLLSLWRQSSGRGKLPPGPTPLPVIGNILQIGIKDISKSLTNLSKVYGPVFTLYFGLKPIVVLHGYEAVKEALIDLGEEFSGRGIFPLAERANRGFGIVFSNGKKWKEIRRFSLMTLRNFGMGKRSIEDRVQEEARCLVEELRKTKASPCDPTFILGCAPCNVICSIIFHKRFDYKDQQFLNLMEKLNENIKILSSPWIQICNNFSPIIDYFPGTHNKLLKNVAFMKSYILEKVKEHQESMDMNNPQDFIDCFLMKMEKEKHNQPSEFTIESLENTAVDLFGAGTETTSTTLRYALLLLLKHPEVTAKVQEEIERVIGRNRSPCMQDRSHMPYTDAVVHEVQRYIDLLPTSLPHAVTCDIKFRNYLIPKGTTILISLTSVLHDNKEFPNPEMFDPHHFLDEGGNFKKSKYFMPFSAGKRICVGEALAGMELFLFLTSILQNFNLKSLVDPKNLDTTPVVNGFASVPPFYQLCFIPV
Sequence of Cytochrome P450 2C19 (P33261 whole entry): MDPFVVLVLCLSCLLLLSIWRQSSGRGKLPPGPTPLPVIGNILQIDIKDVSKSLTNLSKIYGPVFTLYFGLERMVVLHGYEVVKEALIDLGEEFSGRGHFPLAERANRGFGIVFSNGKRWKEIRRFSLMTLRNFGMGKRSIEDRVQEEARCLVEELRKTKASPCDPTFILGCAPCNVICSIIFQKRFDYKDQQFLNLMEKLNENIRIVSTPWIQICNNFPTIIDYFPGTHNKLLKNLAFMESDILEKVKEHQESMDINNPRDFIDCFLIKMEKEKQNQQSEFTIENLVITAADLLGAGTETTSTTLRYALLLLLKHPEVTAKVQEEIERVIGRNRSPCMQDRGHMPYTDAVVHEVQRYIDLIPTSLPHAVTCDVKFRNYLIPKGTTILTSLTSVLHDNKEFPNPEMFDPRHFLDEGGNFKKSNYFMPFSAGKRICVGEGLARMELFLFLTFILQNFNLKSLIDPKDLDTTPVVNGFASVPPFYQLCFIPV

The term EC50 denotes the concentration that produces a half-maximal response. Regarding `Cc1cc(C(=O)NC2CCCN(Cc3ccc(Cl)cc3)C2)n(C)n1` (stereo not drawn), in assay [1], the EC50 is > 195 µM (not active).

`Cc1ccc(Cl)cc1NC(=O)C1COc2ccccc2O1` (stereo not drawn): the EC50 in assay [1] was > 195 µM (not active).

Usually IC50 stands for the concentration that gives 50% inhibition. Turning to `CCn1nc(CC(C)C)cc1C(=O)N1CCCC(Nc2ccc(OC)cc2)C1` (stereo not drawn), in assay [2], the IC50 is 121 µM (active).

A word on the AC50: it is the concentration giving half of the maximal activity seen. On to `CCCCn1cc[n+](C2=C([N-]S(=O)(=O)c3ccc(Cl)cc3)C(=O)c3ccccc3C2=O)c1`, for which the AC50 with INS1 is 4.18 µM (active).

For `CCN(c1ccccc1)S(=O)(=O)c1c[nH]cn1`, in assay [1], the EC50 is > 195 µM (not active).

Regarding `COC(=O)[C@H]1[C@H](c2ccccc2)C(=O)[C@@]2(O)c3ccccc3O[C@@]12c1ccccc1`, the half-maximal activity concentration (AC50) at Cytochrome P450 3A4 was 3.16 µM (inconclusive); on Cytochrome P450 2C9, 6.31 µM (inconclusive).

As for `COC(=O)c1[nH]c2cc(OC)c(OC)cc2c1/C=N/Nc1ccccc1`, the EC50 in assay [3] is 20 µM (active); in assay [4], 20.3 µM (inconclusive). The IC50 with H9c2 is > 79 µM (inactive).

In the case of `c1ccc2sc(NC3=NCN(C4CCCCCC4)CN3)nc2c1`, the AC50 was 7.94 µM (inconclusive) on Cytochrome P450 3A4 and 39.8 µM (inconclusive) at Cytochrome P450 2C9.

For the compound `Cc1ccc(C(c2sc3ncnn3c2O)N2CC(C)CC(C)C2)cc1` (stereo not drawn), the EC50 in assay [1] was > 195 µM (not active).

With `COc1ccc2nc(O)c(CNc3ccc(C)c(C)c3)cc2c1`, in the assay on H9c2, the IC50 was > 79 µM (inactive).

Turning to `CCOP(=O)(OCC)c1cccc(OP(=O)(c2cccc([N+](=O)[O-])c2)c2cccc([N+](=O)[O-])c2)c1`, the EC50 in [1] is on record as > 195 µM (not active).

For `O=C(c1cc2c(s1)-c1ccccc1OC2)N1CCN(c2ccccc2)CC1`, in assay [1], the EC50 was > 195 µM (not active).

As to `O=C(CN1CCN(C/C=C/c2ccccc2)CC1)Nc1ccccc1C(=O)NC1CC1`, in assay [2], the IC50 is 90.5 µM (active).

For `CCN(CC)c1ccc(/C=N/NC(=O)c2cc3ccccc3[nH]2)cc1`, the 50% inhibitory concentration (IC50) in assay [2] was 146 µM (active).

Turning to `N[C@@H](C(=O)O)[C@H](CC(=O)O)c1ccc(Cl)cc1`, the half-maximal activity concentration (AC50) at Cytochrome P450 2C19 is 25.1 µM (inconclusive); on Cytochrome P450 2C9, 39.8 µM (inconclusive).

Consider `CC(C)CC(=O)Nc1ccc2c(c1)oc1ccccc12`, for which the AC50 at Cytochrome P450 2C19 was 2.82 µM (inconclusive); at Cytochrome P450 2C9 it was 8.91 µM (inconclusive).

With `O=C(CN1C(=O)C2CC=CCC2C1=O)Nc1nc(-c2ccc(F)cc2)cs1` (stereo not drawn), the IC50 in the assay with H9c2 was > 79 µM (inactive).

In the case of `CCCSc1nnc(CNS(=O)(=O)c2ccc(C)cc2)n1C`, the EC50 in assay [1] is given as > 195 µM (not active).

With `C=C[C@H](CC(C)C)N(Cc1ccccc1)S(=O)(=O)N(Cc1ccccc1)[C@@H](C=C)CC(C)C`, the AC50 with INS1 was 5.4 µM (active).

Consider `CC(=O)Nc1ccc(S(=O)(=O)NCC2CCC(C(=O)N3CCN(c4ccccn4)CC3)CC2)cc1` (stereo not drawn), for which the AC50 at Cytochrome P450 2C19 was 10 µM (inconclusive); on Cytochrome P450 2C9, 3.98 µM (inconclusive).

`O=C(Nc1cccc(-c2nc3cccnc3s2)c1)c1ccco1`: the IC50 with H9c2 was > 79 µM (inactive).

Turning to `OC(CNC1CCCCC1)COCCOc1ccc(Br)cc1` (stereo not drawn), the AC50 in the assay on INS1 was 61.9 µM (active).

`O=C(CN1CCCCCC1)NN(Cc1ccccc1)c1ccccc1`: in [2], the IC50 is 301 µM (active).

With `COC(=O)c1ccc(OCC(=O)Nc2ccccc2C(=O)NC2CC2)cc1`, in the assay with H9c2, the IC50 was > 79 µM (inactive).

As for `NN=C(S)NC1CC2CC1C1C=CCC21` (stereo not drawn), in assay [1], the EC50 is given as > 195 µM (not active).

Regarding `Cc1cc(-c2ccccc2)nc(O)c1S(=O)(=O)c1ccc(Cl)cc1`, the AC50 is 5.62 µM (inconclusive) on Cytochrome P450 2C19 and 3.55 µM (inconclusive) at Cytochrome P450 2C9.

With `COc1ccc(C(=O)N2CCN=C2SCc2cccnc2)cc1OC`, the EC50 in assay [1] is on record as > 195 µM (not active).

As for `CCOc1ccc(NC(=O)c2cc3c(=O)n(C)c4ccccc4c3n2C)cc1`, the IC50 in the assay on H9c2 was > 79 µM (inactive).

Take `CC1Cc2ccccc2N1C(=O)Cn1cc([N+](=O)[O-])cn1` (stereo not drawn): the results for the AC50 on Cytochrome P450 2C19 and at Cytochrome P450 2C9 were 11.2 µM (inconclusive) and 39.8 µM (inconclusive), respectively.

For the compound `COc1ccc(-c2cc(C(=O)Nc3ccc(O)cc3)c3ccccc3n2)cc1OC`, the IC50 in assay [2] was 159 µM (active).

Consider `Cc1cccc(N2C(S)=NC(=Nc3c(C)cccc3C)C23CCOC(C)(C)C3)c1` (stereo not drawn), for which the AC50 in the assay on INS1 is 3.8 µM (active).

Take `O=C(CCc1nc(O)c2ccccc2n1)OCCOc1ccc(Cl)cc1`: the IC50 in the assay with H9c2 is > 79 µM (inactive).

Take `CC(C)=NNc1cnnc2ccc([N+](=O)[O-])cc12`: the IC50 with H9c2 is 8.8 µM (active).

Turning to `CCCn1nc(C(=O)OCC(=O)c2c(N)n(C)c(=O)n(C)c2=O)c2ccccc2c1=O`, in the assay with H9c2, the IC50 was 17.1 µM (active).

For the compound `COc1cc(OC)c(Cl)cc1N`, the IC50 in [2] is 35.9 µM (active).

Regarding `CCOC(=O)N1CCN(S(=O)(=O)c2ccc3c(c2)OCC(=O)N3)CC1`, the EC50 in assay [1] is reported as > 195 µM (not active).

As to `COc1ccc(CC(=O)N(Cc2ccccc2)c2ccccc2)cc1S(=O)(=O)N1CCOCC1`, the IC50 in the assay with H9c2 is 70.9 µM (inactive).

Consider `CCN(CCS(=O)(=O)c1ccc(Cl)cc1)C(=O)Nc1ccccc1`, for which, in assay [1], the EC50 is reported as > 195 µM (not active).

Regarding `COc1cccc(OCC(O)CN2CCN(C)CC2)c1` (stereo not drawn), the IC50 in assay [2] was 74.6 µM (active).

On to `CCOC(=O)c1cc(-c2nnc(-c3cc(OC)c(OC)c(OC)c3)o2)c(C)nc1C`, for which the IC50 in the assay with H9c2 was > 79 µM (inactive).

For `COc1cc(/C=C/C(=O)OCC(=O)NC(=O)NC(C)C)ccc1O`, the IC50 in assay [2] was 47.7 µM (active).

In the case of `CC(=O)c1cccc(NC(=O)C(C)OC(=O)CCc2nc(O)c3ccccc3n2)c1` (stereo not drawn), the IC50 in the assay on H9c2 is 15.7 µM (active).

With `CCc1cc[n+](C2=Nc3ccccc3[N-]C2=C(C#N)C#N)cc1`, the figures for the AC50 at Cytochrome P450 2C19, at Cytochrome P450 3A4 and on Cytochrome P450 2C9 were 25.1 µM (inconclusive), 15.8 µM (inconclusive) and 14.1 µM (inconclusive), respectively.

In the case of `Clc1nc2sccn2c1/C=N/n1cnc2ccccc21`, in the assay on H9c2, the IC50 is > 79 µM (inactive).

In the case of `O=C(CN1CCN(S(=O)(=O)c2cc(Cl)ccc2Cl)CC1)c1ccc(O)c(O)c1`, in the assay with H9c2, the IC50 is > 79 µM (inactive).

Consider `C/C(=N/NC(=O)c1cccs1)c1cccc(NC(=O)C2CC2)c1`, for which, in the assay on H9c2, the IC50 is > 79 µM (inactive).

Turning to `Fc1ccc(CNCCc2ccccc2)cc1`, the concentration for half-maximal inhibition (IC50) in [2] is 249 µM (active).
